Measurements published in patent publication US8906909B2 (Curis, Inc., priority 2009, dated 2014).
Where two headings read alike, the source gives them in different places.

What was measured:
HCT-118 cells = experiment: Cell proliferation assay Method A (ATPlite), HCT-118; type: cell-based; conditions: 72 hours, read-out: antiproliferative activity IC50, HCT-118
Method: (§1) Cancer cell lines were plated at 5,000 to 10,000 per well in 96-well flat bottomed plates with various concentration of compounds. The cells were incubated with compounds for 72 hours in the presence of 0.5% of fetal bovine serum. Growth inhibition was accessed by adenosine triphosphate (ATP) content assay using Perkin Elmer ATPlite kit. ATPlite is an ATP monitoring system based on firefly luciferase. Briefly, 25 μl of mammalian cell lysis solution was added to 50 μl of phenol red-free culture medium per well to lyse the cells and stabilize the ATP. 25 μl of substrate solution was then added to the well and subsequently the luminescence was measured.

H1975 cells = experiment: Cell proliferation assay Method B, H1975; type: cell-based; conditions: Homo sapiens, NCI-H1975, NSCLC, 72 hours, read-out: antiproliferative activity IC50, H1975
Method: (§2) Cancer cell lines were plated at 5,000 to 10,000 per well in 96-well flat bottomed plates with various concentration of compounds. The cells were incubated with compounds for 72 hours in the presence of 0.5% of fetal bovine serum. Growth inhibition was accessed by adenosine triphosphate (ATP) content assay using Promega CellTiter-Glo kit. Promega CellTiter-Glo kit is an ATP monitoring system based on firefly luciferase. Briefly, 16 μl of mammalian cell lysis and substrate solution was added to 84 μl of culture medium per well to lyse the cells and stabilize the ATP. The mixture was shaken and incubated for 30 minutes and subsequently the luminescence was measured.

MDA-MB-468 cells = experiment: Cell proliferation assay Method B, MDA-MB-468; type: cell-based; conditions: Homo sapiens, 72 hours, read-out: antiproliferative activity IC50, MDA-MB-468
Method: as §2

U87MG cells = experiment: Cell proliferation assay Method B, U87MG; type: cell-based; conditions: Homo sapiens, U-87 MG, Glioblastoma, 72 hours, read-out: antiproliferative activity IC50, U87MG
Method: as §2

H1993 cells [1] = experiment: Cell proliferation assay Method A (ATPlite), H1993; type: cell-based; conditions: Homo sapiens, NCI-H1993, 72 hours, read-out: antiproliferative activity IC50, H1993
Method: as §1

BT-474 cells = experiment: Cell proliferation assay Method A (ATPlite), BT-474; type: cell-based; conditions: Homo sapiens, 72 hours, read-out: antiproliferative activity IC50, BT-474
Method: as §1

Sk-Mel-28 cells [2] = experiment: Cell proliferation assay Method B, Sk-Mel-28; type: cell-based; conditions: Homo sapiens, Melanoma, 72 hours, read-out: antiproliferative activity IC50, Sk-Mel-28
Method: as §2

BT474 cells = experiment: Cell proliferation assay Method B, BT474; type: cell-based; conditions: Homo sapiens, BT-474, 72 hours, read-out: antiproliferative activity IC50, BT474
Method: as §2

[3] = system: HDACs (HeLa cell nuclear extracts); experiment: HDAC enzymatic activity, Biomol Color de Lys system; type: biochemical
Summary of the method: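 HeLa nuclear extract as HDAC source with Color de Lys substrate in 50 mM Tris/Cl pH 8.0, 137 mM NaCl, 2.7 mM KCl, 1 mM MgCl2. Serially diluted compounds reacted 1 h at 25 °C, then developer added; fluorescence (Ex 350–380/Em 440–460) fitted sigmoidally for IC50.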

HCC1937 cells = experiment: Cell proliferation assay Method B, HCC1937; type: cell-based; conditions: Homo sapiens, 72 hours, read-out: antiproliferative activity IC50, HCC1937
Method: as §2

Sk-Mel-28 cells [4] = experiment: Cell proliferation assay Method A (ATPlite), Sk-Mel-28; type: cell-based; conditions: Homo sapiens, 72 hours, read-out: antiproliferative activity IC50, Sk-Mel-28
Method: as §1

H1993 cells [5] = experiment: Cell proliferation assay Method B, H1993; type: cell-based; conditions: Homo sapiens, NCI-H1993, NSCLC, 72 hours, read-out: antiproliferative activity IC50, H1993
Method: as §2

RPMI-8226 cells = experiment: Cell proliferation assay Method B, RPMI-8226; type: cell-based; conditions: Homo sapiens, Multiple Myeloma, 72 hours, read-out: antiproliferative activity IC50, RPMI-8226
Method: as §2

MDA-MB-436 cells = experiment: Cell proliferation assay Method B, MDA-MB-436; type: cell-based; conditions: Homo sapiens, Breast, Method B, 72 hours, read-out: antiproliferative activity IC50, MDA-MB-436
Method: as §2

A375 cells = experiment: Cell proliferation assay Method B, A375; type: cell-based; conditions: Homo sapiens, A-375; Melanoma; Method B; 72 hours; read-out: antiproliferative activity IC50, A375
Method: as §2

[6] = 0.5% fetal bovine serum, CellTiter-Glo
[7] = Sk-Mel-28, 0.5% fetal bovine serum, CellTiter-Glo
[8] = BT474, 0.5% fetal bovine serum, CellTiter-Glo
[9] = H1993, 0.5% fetal bovine serum, CellTiter-Glo

Row | IC50 (HCT-118 cells) [nM] | IC50 (H1993 cells [1]) [nM] | IC50 (BT-474 cells) [nM] | melting point [°C] | IC50 [3] [nM] | IC50 (BT474 cells; Breast, Method B) [nM] | IC50 (A375 cells) [nM] | IC50 (RPMI-8226 cells; [6]) [nM] | Structure (SMILES) | IC50 (Sk-Mel-28 cells [2]; [7]) [nM] | IC50 (Sk-Mel-28 cells [4]) [nM] | IC50 (Sk-Mel-28 cells [2]; SK-MEL-28, Method B) [nM] | also measured
1 | < 100 | < 100 | < 100 | 197 to 200 | < 100 | – | – | – | CN(Cc1cc2nc(-c3cccc4[nH]ncc34)nc(N3CCOCC3)c2s1)c1ncc(C(=O)NO)cn1 [Compound 54, 2-(((2-(1H-indazol-4-yl)-4-morpholinothieno[3,2-d]pyrimidin-6-yl)methyl)(methyl)amino)-N-hydroxypyrimidine-5-carboxamide] | 10 to 100 | < 100 | – | IC50 (H1975 cells; H1975, 0.5% fetal bovine serum, CellTiter-Glo): 10 to 100 nM; IC50 (MDA-MB-468 cells; [6]): < 10 nM; IC50 (U87MG cells; U87MG, 0.5% fetal bovine serum, CellTiter-Glo): 10 to 100 nM; IC50 (BT474 cells; [8]): < 10 nM; IC50 (HCC1937 cells; [6]): 10 to 100 nM; IC50 (H1993 cells [5]; [9]): 10 to 100 nM
2 | < 100 | < 100 | < 100 | – | < 100 | < 10 | – | – | CC(c1cc2nc(-c3cccc4[nH]ncc34)nc(N3CCOCC3)c2s1)N(C)c1ncc(C(=O)NO)cn1 (stereo not shown) [Compound 70] | – | < 100 | 100 to 1000 | –
3 | < 100 | < 100 | < 100 | 183 to 187 | < 100 | 10 to 100 | 10 to 100 | – | CNc1ncc(-c2nc(N3CCOCC3)c3sc(CN(C)c4ncc(C(=O)NO)cn4)cc3n2)cn1 [Compound 116, N-hydroxy-2-(methyl((2-(2-(methylamino)pyrimidin-5-yl)-4-morpholinothieno[3,2-d]pyrimidin-6-yl)methyl)amino)pyrimidine-5-carboxamide] | – | < 100 | < 10 | IC50 (H1975 cells; Method B): 10 to 100 nM; IC50 (MDA-MB-468 cells; Breast, Method B): 10 to 100 nM; IC50 (U87MG cells; Method B): 10 to 100 nM; IC50 (RPMI-8226 cells; Method B): < 10 nM; IC50 (MDA-MB-436 cells): 10 to 100 nM; IC50 (HCC1937 cells; Breast, Method B): 10 to 100 nM; IC50 (H1993 cells [5]; Method B): 10 to 100 nM
4 | – | – | – | 184 to 186 | < 100 | 10 to 100 | 10 to 100 | – | Cc1ncc(-c2nc(N3CCOCC3)c3sc(CN(C)c4ncc(C(=O)NO)cn4)cc3n2)cn1 [Compound 120, N-hydroxy-2-(methyl((2-(2-methylpyrimidin-5-yl)-4-morpholinothieno[3,2-d]pyrimidin-6-yl)methyl)amino)pyrimidine-5-carboxamide] | – | – | 10 to 100 | IC50 (H1975 cells; Method B): 10 to 100 nM; IC50 (MDA-MB-468 cells; Breast, Method B): 10 to 100 nM; IC50 (U87MG cells; Method B): 10 to 100 nM; IC50 (RPMI-8226 cells; Method B): < 10 nM; IC50 (MDA-MB-436 cells): 10 to 100 nM; IC50 (HCC1937 cells; Breast, Method B): 10 to 100 nM; IC50 (H1993 cells [5]; Method B): 10 to 100 nM
5 | < 100 | 100 to 1000 | < 100 | 195 to 198 | < 100 | – | – | – | Cc1nc(N)ncc1-c1nc(N2CCOCC2)c2sc(CN(C)c3ncc(C(=O)NO)cn3)cc2n1 [Compound 125, 2-(((2-(2-amino-4-methylpyrimidin-5-yl)-4-morpholinothieno[3,2-d]pyrimidin-6-yl)methyl)(methyl)amino)-N-hydroxypyrimidine-5-carboxamide] | 100 to 1000 | 100 to 1000 | – | IC50 (BT474 cells; [8]): 10 to 100 nM; IC50 (H1993 cells [5]; [9]): 100 to 1000 nM
6 | < 100 | < 100 | < 100 | 160 to 164 | < 100 | < 10 | 10 to 100 | – | CN(Cc1cc2nc(-c3cccc(CO)c3)nc(N3CCOCC3)c2s1)c1ncc(C(=O)NO)cn1 [Compound 138, N-hydroxy-2-(((2-(3-(hydroxymethyl)phenyl)-4-morpholinothieno[3,2-d]pyrimidin-6-yl)methyl)(methyl)amino)pyrimidine-5-carboxamide] | – | < 100 | 10 to 100 | IC50 (H1975 cells; Method B): 10 to 100 nM; IC50 (MDA-MB-468 cells; Breast, Method B): 10 to 100 nM; IC50 (U87MG cells; Method B): < 10 nM; IC50 (MDA-MB-436 cells): 10 to 100 nM; IC50 (HCC1937 cells; Breast, Method B): 10 to 100 nM; IC50 (H1993 cells [5]; Method B): 10 to 100 nM
7 | – | – | – | 179 to 183 | < 100 | – | – | < 10 | CN(Cc1cc2nc(-c3ccc(N)cc3Cl)nc(N3CCOCC3)c2s1)c1ncc(C(=O)NO)cn1 [Compound 284, 2-(((2-(4-Amino-2-chlorophenyl)-4-morpholinothieno[3,2-d]pyrimidin-6-yl)methyl)(methyl)amino)-N-hydroxypyrimidine-5-carboxamide] | – | – | – | –
8 | – | – | – | 148 to 152 | < 100 | – | – | < 10 | CN(Cc1cc2nc(-c3cccc(OCCO)c3)nc(N3CCOCC3)c2s1)c1ncc(C(=O)NO)cn1 [Compound 289, 2-({2-[3-(2-Hydroxy-ethoxy)-phenyl]-4-morpholin-4-yl-thieno[3,2-d]pyrimidin-6-ylmethyl}-methyl-amino)-pyrimidine-5-carboxylic acid hydroxyamide] | < 10 | – | – | –
9 | – | – | – | 250 to 255 | < 100 | – | < 10 | – | CN(Cc1cc2nc(-c3cc(O)ccc3F)nc(N3CCOCC3)c2s1)c1ncc(C(=O)NO)cn1 [Compound 292, 2-(((2-(2-Fluoro-5-hydroxyphenyl)-4-morpholinothieno[3,2-d]pyrimidin-6-yl)methyl)(methyl)amino)-N-hydroxypyrimidine-5-carboxamide] | – | – | – | –
10 | – | – | – | – | < 100 | – | – | < 10 | CC(O)c1cccc(-c2nc(N3CCOCC3)c3sc(CN(C)c4ncc(C(=O)NO)cn4)cc3n2)c1 (stereo not shown) [Compound 294, N-Hydroxy-2-(((2-(3-(1-hydroxyethyl)phenyl)-4-morpholinothieno[3,2-d]pyrimidin-6-yl)methyl)(methyl)amino)pyrimidine-5-carboxamide] | < 10 | – | – | –
11 | – | – | – | 168 to 172 | < 100 | – | – | < 10 | C[C@H](O)c1cccc(-c2nc(N3CCOCC3)c3sc(CN(C)c4ncc(C(=O)NO)cn4)cc3n2)c1 [Compound 296, (S)—N-Hydroxy-2-(((2-(3-(1-hydroxyethyl)phenyl)-4-morpholinothieno[3,2-d]pyrimidin-6-yl)methyl)(methyl)amino)pyrimidine-5-carboxamide] | – | – | – | –
12 | – | – | – | 215 to 218 | < 100 | – | – | 100 to 1000 | CNc1ccc(-c2nc(N3CCOCC3)c3sc(C(=O)NCC4CCN(c5ncc(C(=O)NO)cn5)CC4)cc3n2)cn1 [Compound 308, N-((1-(5-(Hydroxycarbamoyl)pyrimidin-2-yl)piperidin-4-yl)methyl)-2-(6-(methylamino)pyridin-3-yl)-4-morpholinothieno[3,2-d]pyrimidine-6-carboxamide] | – | – | – | –
